Source: BindingDB's records for doi:10.1021/jm0704898 (Georgetown University Medical Center, 2007)

Experiments:
[1] = biological target: T1, Suppressor of tumorigenicity 14 protein (Homo sapiens, UniProt Q9Y5Y6); assay: Enzyme Inhibition Assay; settings: pH 8.5; 22 °C
T1 sequence (Q9Y5Y6 whole entry): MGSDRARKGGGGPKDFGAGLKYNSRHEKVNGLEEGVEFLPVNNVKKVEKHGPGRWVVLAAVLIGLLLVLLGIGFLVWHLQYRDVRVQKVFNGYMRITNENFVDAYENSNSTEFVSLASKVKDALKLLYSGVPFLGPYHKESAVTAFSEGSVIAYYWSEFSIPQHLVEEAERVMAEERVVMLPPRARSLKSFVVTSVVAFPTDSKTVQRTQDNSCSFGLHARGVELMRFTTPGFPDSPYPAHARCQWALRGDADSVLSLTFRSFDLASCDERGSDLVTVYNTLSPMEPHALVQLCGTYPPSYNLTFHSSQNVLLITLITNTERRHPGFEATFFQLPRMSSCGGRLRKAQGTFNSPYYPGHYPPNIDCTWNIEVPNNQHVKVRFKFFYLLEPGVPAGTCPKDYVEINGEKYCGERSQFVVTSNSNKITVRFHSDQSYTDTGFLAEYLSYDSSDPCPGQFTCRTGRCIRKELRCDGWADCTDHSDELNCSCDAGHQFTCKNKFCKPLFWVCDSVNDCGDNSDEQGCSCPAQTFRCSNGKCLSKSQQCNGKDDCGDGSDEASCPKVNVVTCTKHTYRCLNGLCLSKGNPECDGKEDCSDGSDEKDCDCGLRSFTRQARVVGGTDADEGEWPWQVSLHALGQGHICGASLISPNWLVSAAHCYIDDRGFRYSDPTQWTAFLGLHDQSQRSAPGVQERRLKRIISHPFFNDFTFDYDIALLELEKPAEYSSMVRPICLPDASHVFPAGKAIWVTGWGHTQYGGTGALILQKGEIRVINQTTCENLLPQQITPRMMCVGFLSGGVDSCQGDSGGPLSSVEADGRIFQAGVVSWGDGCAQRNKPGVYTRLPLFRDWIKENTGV
Protocol: (§1) The enzyme reaction was initiated by adding fluorescence peptide substrate to reaction mixture containing enzyme and test compounds. […] Hydrolysis rates were recorded in presence of six to seven different concentrations of inhibitor.

[2] = biological target: Prothrombin (Bos taurus, UniProt P00735); assay: Enzyme Inhibition Assay; settings: pH 8.5; 22 °C
Protocol: as §1

CC[C@H](C)[C@@H]1NC(=O)[C@@H]2CCCN2C(=O)[C@@H]2CCCN2C(=O)[C@H]([C@@H](C)CC)NC(=O)[C@H](CO)NC(=O)[C@H](CCCCN)NC(=O)[C@H]([C@@H](C)O)NC(=O)[C@@H]2CSSC[C@H](NC1=O)C(=O)N[C@@H](Cc1c(F)c(F)c(F)c(F)c1F)C(=O)N1CCC[C@H]1C(=O)N[C@@H](CC(=O)O)C(=O)NCC(=O)N[C@@H](CCCN=C(N)N)C(=O)N2
Ki [1]: 0.89 µM
Ki [2]: 33.6 µM

CC[C@H](C)[C@@H]1NC(=O)[C@@H]2CCCN2C(=O)[C@@H]2CCCN2C(=O)[C@H]([C@@H](C)CC)NC(=O)[C@H](CO)NC(=O)[C@H](CCCN)NC(=O)[C@H]([C@@H](C)O)NC(=O)[C@@H]2CSSC[C@H](NC1=O)C(=O)N[C@@H](Cc1ccccc1)C(=O)N1CCC[C@H]1C(=O)N[C@@H](CC(=O)O)C(=O)NCC(=O)N[C@@H](CCCN=C(N)N)C(=O)N2 [2-[(1R,4S,7S,13S,19S,22S,25S,28S,31R,34S,40S,43S,49S)-25-(3-aminopropyl)-49-benzyl-4,19-bis[(2S)-butan-2-yl]-34-(3-carbamimidamidopropyl)-28-[(1R)-1-hydroxyethyl]-22-(hydroxymethyl)-3,6,12,18,21,24,27,30,33,36,39,42,48,51-tetradecaoxo-53,54-dithia-2,5,11,17,20,23,26,29,32,35,38,41,47,50-tetradecaazapentacyclo[29.20.4.0^{7,11}.0^{13,17}.0^{43,47}]pentapentacontan-40-yl]acetic acid]
Ki [1]: > 250 µM

CC[C@H](C)[C@@H]1NC(=O)[C@@H]2CCCN2C(=O)[C@@H]2CCCN2C(=O)[C@H]([C@@H](C)CC)NC(=O)[C@H](CO)NC(=O)[C@H](CCCCN)NC(=O)[C@H]([C@@H](C)O)NC(=O)[C@@H]2CSSC[C@H](NC1=O)C(=O)N[C@@H](Cc1ccc(-c3ccccc3)cc1)C(=O)N1CCC[C@H]1C(=O)N[C@@H](CC(=O)O)C(=O)NCC(=O)N[C@@H](CCCN=C(N)N)C(=O)N2 [2-[(1R,4S,7S,13S,19S,22S,25S,28S,31R,34S,40S,43S,49S)-25-(4-aminobutyl)-4,19-bis[(2S)-butan-2-yl]-34-(3-carbamimidamidopropyl)-28-[(1R)-1-hydroxyethyl]-22-(hydroxymethyl)-3,6,12,18,21,24,27,30,33,36,39,42,48,51-tetradecaoxo-49-[(4-phenylphenyl)methyl]-53,54-dithia-2,5,11,17,20,23,26,29,32,35,38,41,47,50-tetradecaazapentacyclo[29.20.4.0^{7,11}.0^{13,17}.0^{43,47}]pentapentacontan-40-yl]acetic acid]
Ki [1]: 1 µM
Ki [2]: 25.6 µM

CC[C@H](C)[C@@H]1NC(=O)[C@@H]2CCCN2C(=O)[C@@H]2CCCN2C(=O)[C@H]([C@@H](C)CC)NC(=O)[C@H](CO)NC(=O)[C@H](CCCCN)NC(=O)[C@H]([C@@H](C)O)NC(=O)[C@@H]2CSSC[C@H](NC1=O)C(=O)N[C@@H](Cc1ccc3ccccc3c1)C(=O)N1CCC[C@H]1C(=O)N[C@@H](CC(=O)O)C(=O)NCC(=O)N[C@@H](CCCN=C(N)N)C(=O)N2 [2-[(1R,4S,7S,13S,19S,22S,25S,28S,31R,34S,40S,43S,49S)-25-(4-aminobutyl)-4,19-bis[(2S)-butan-2-yl]-34-(3-carbamimidamidopropyl)-28-[(1R)-1-hydroxyethyl]-22-(hydroxymethyl)-49-(naphthalen-2-ylmethyl)-3,6,12,18,21,24,27,30,33,36,39,42,48,51-tetradecaoxo-53,54-dithia-2,5,11,17,20,23,26,29,32,35,38,41,47,50-tetradecaazapentacyclo[29.20.4.0^{7,11}.0^{13,17}.0^{43,47}]pentapentacontan-40-yl]acetic acid]
Ki [1]: 0.45 µM
Ki [2]: 16.3 µM

CC[C@H](C)[C@@H]1NC(=O)[C@@H]2CCCN2C(=O)[C@@H]2CCCN2C(=O)[C@H]([C@@H](C)CC)NC(=O)[C@H](CO)NC(=O)[C@H](CCCCN)NC(=O)[C@H]([C@@H](C)O)NC(=O)[C@@H]2CSSC[C@H](NC1=O)C(=O)N[C@@H](Cc1ccccc1)C(=O)N1CCC[C@H]1C(=O)N[C@@H](CC(=O)O)C(=O)NCC(=O)N[C@@H](CCCNC(=N)N)C(=O)N2 [2-[(1R,4S,7S,13S,19S,22S,25S,28S,31R,34S,40S,43S,49S)-25-(4-aminobutyl)-49-benzyl-4,19-bis[(2S)-butan-2-yl]-34-(3-carbamimidamidopropyl)-28-[(1R)-1-hydroxyethyl]-22-(hydroxymethyl)-3,6,12,18,21,24,27,30,33,36,39,42,48,51-tetradecaoxo-53,54-dithia-2,5,11,17,20,23,26,29,32,35,38,41,47,50-tetradecaazapentacyclo[29.20.4.0^{7,11}.0^{13,17}.0^{43,47}]pentapentacontan-40-yl]acetic acid]
Ki [1]: 0.1 µM

CC[C@H](C)[C@@H]1NC(=O)[C@@H]2CCCN2C(=O)[C@@H]2CCCN2C(=O)[C@H]([C@@H](C)CC)NC(=O)[C@H](CO)NC(=O)[C@H](CCCCN)NC(=O)[C@H]([C@@H](C)O)NC(=O)[C@@H]2CSCSC[C@H](NC1=O)C(=O)N[C@@H](Cc1ccccc1)C(=O)N1CCC[C@H]1C(=O)N[C@@H](CC(=O)O)C(=O)NCC(=O)N[C@@H](CCCN=C(N)N)C(=O)N2 [2-[(1R,4S,7S,13S,19S,22S,25S,28S,31R,34S,40S,43S,49S)-25-(4-aminobutyl)-49-benzyl-4,19-bis[(2S)-butan-2-yl]-34-(3-carbamimidamidopropyl)-28-[(1R)-1-hydroxyethyl]-22-(hydroxymethyl)-3,6,12,18,21,24,27,30,33,36,39,42,48,51-tetradecaoxo-53,55-dithia-2,5,11,17,20,23,26,29,32,35,38,41,47,50-tetradecaazapentacyclo[29.20.5.0^{7,11}.0^{13,17}.0^{43,47}]hexapentacontan-40-yl]acetic acid]
Ki [1]: 0.16 µM
Ki [2]: 10 µM

CC[C@H](C)[C@@H]1NC(=O)[C@@H]2CCCN2C(=O)[C@@H]2CCCN2C(=O)[C@H]([C@@H](C)CC)NC(=O)[C@H](CO)NC(=O)[C@H](CCCCN)NC(=O)[C@H]([C@@H](C)O)NC(=O)[C@@H]2CCSSC[C@H](NC1=O)C(=O)N[C@@H](Cc1ccccc1)C(=O)N1CCC[C@H]1C(=O)N[C@@H](CC(=O)O)C(=O)NCC(=O)N[C@@H](CCCN=C(N)N)C(=O)N2 [2-[(1R,4S,7S,13S,19S,22S,25S,28S,31S,34S,40S,43S,49S)-25-(4-aminobutyl)-49-benzyl-4,19-bis[(2S)-butan-2-yl]-34-(3-carbamimidamidopropyl)-28-[(1R)-1-hydroxyethyl]-22-(hydroxymethyl)-3,6,12,18,21,24,27,30,33,36,39,42,48,51-tetradecaoxo-53,54-dithia-2,5,11,17,20,23,26,29,32,35,38,41,47,50-tetradecaazapentacyclo[29.20.5.0^{7,11}.0^{13,17}.0^{43,47}]hexapentacontan-40-yl]acetic acid]
Ki [1]: 0.38 µM
